Source: patent US20250170121A1, “ISOQUINOLINONE COMPOUND, AND PREPARATION METHOD AND USE THEREFOR” (FUDAN UNIVERSITY, priority 2022, published 2025)

Columns and labels:
prostate cancer cells = conditions: background statement; cited from earlier work
Human FABP4 = target: T1, Human FABP4 (Homo sapiens, UniProt P15090); assay: FABP4 inhibition rate, ANS substrate competition (fluorescence) method; format: binding; conditions: compound 25 μM; 10 μM 1,8-ANS, 10 μM FABP4
T1 construct: His tag; made in house; host or cells: E. coli BL21 (DE3)
T1 sequence (P15090 whole entry): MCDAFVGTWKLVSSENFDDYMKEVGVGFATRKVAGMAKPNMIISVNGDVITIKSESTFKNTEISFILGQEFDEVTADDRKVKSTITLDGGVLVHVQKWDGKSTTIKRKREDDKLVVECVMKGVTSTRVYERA
From the text: (§1) Considering that inhibition of FABP3 would cause myocardial function damage and bring potential safety issues, we tested the inhibitory activity of some compounds on FABP3. The activity test is illustrated by the example of the FABP4 activity test system as below.
(§2) Experimental principle and method: Once the free non-covalent fluorescent probe ANS binds to FABP4, the ANS fluorescence intensity will increase and its spectrum will be blue shifted. In this experiment, the inhibitory effect of the compound on FABP4 was evaluated by measuring the change in the ANS fluorescence signal value. For the FABP4 inhibitory activity test, the ANS substrate competition method was used, and we used the method of Kane and Bernlohr (E. Marr, M. Tardie, M. Carty, T. Brown Phillips, I. K. Wang, W. Soeller, X. Qiu, G. Karam, Expression, purification, crystallization and structure of human adipocyte lipid-binding protein (aP2). Acta Crystallogr., Sect. F: Struct. Biol. Cryst. Commun. 62 (2006) 1058-1060.). Human FABP4 with a His tag was expressed in the BL21 (DE3) strain and then purified using a Ni column with a His tag to generate the protein. In the detection system, the concentration of 1,8-ANS substrate was 10 μM, the final concentration of FABP4 was 10 μM, and then the compound prepared by the present invention was added at the required concentration for incubation for 3 minutes, and finally the fluorescence signal was detected at an excitation wavelength (EX) of 370 nm/emission wavelength (EM) of 470 nm. The inhibition rate (%) of the test sample on FABP4 was calculated according to the fluorescence absorption value of the system. The inhibition rate (%) was calculated according to the following equation: […]
(§3) FX represents the fluorescence value (fluorescence, F) of the system measured in the presence of compound x;
(§4) Fbackground represents the fluorescence value of the fluorescent substrate ANS;
(§5) F0% represents the fluorescence value of the system when the inhibition rate is 0%, that is, when no compound was added.

[1] = system: IL-6 secretion in THP-1 cells; assay: IL-6 secretion in LPS-stimulated THP-1 monocyte-derived macrophages (ELISA); format: cell-based; conditions: FIG. 3
From the text: (§6) In FIG. 3, the vertical axis represents the amount (ng) of MCP-1 contained in each mg of cell protein. Wherein, Control (Con) represents blank control treatment, LPS represents lipopolysaccharide treatment, BMS309403 represents inhibitor positive control treatment, RO6806051 (RO) represents lead compound treatment, and Y2, Y3, Y15, Y16 and Y18 represent treatments with compounds Y2, Y3, Y15, Y16 and Y18 prepared in the present invention, respectively.
(§7) Effects of the compounds on monocyte chemoattractant factor-1 (MCP-1) and interleukin-6 (IL-6) in THP-1 monocyte-derived macrophage.
(§8) First, monocytic cell line THP-1 in logarithmic growth phase was plated on a 96-well plate at a cell density of 5*10^5/ml; then 100 nM phorbol myristate ester (PMA) was added to induce the cells for 24 hours to differentiate into macrophages; then the cells were washed once or twice with phosphate buffered saline (PBS), and different concentrations of compounds (5, 10, 25 μM) were added for incubation for 18 hours; finally, after 6 hours of stimulation with 100 ng/ml lipopolysaccharide (LPS), the supernatant was collected and diluted to a certain multiple and the contents of MCP-1 and IL-6 were detected using enzyme-linked immunosorbent assay (ELISA), and cell protein was collected and the protein concentration was measured by BCA method for calibration.

FABP3 = FABP3 (Homo sapiens, UniProt P05413); assay: FABP3 inhibition rate, ANS substrate competition method (illustrated by the FABP4 system); format: binding; conditions: compound 25 μM
FABP3, sequence (P05413 whole entry): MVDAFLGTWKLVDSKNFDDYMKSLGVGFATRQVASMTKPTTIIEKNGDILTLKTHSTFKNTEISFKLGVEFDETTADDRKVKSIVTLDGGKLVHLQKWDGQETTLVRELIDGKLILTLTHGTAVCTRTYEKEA
From the text: as §1, §2, §3, §4, §5

3T3-L1 cells = assay: Lipolysis inhibition in differentiated mature 3T3-L1 adipocytes (supernatant glycerol, forskolin stimulation); format: cell-based; conditions: 80 μM compound, 24 h incubation, 20 μM forskolin 2 h; FIG. 1
Description: In this example, the lipolysis inhibitory activity of the compounds prepared in the present invention on differentiated mature 3T3-L1 preadipocytes was measured.
5 In adipocytes, FABP4 plays the role of a fatty acid chaperone, and gene knockout or drug inhibition of FABP4 can be used to inhibit lipolysis and promote lipid production in adipocytes. Therefore, the lipolysis experiment can be used as a confirmation indicator of the FABP4 inhibitory activity of the compound. In this experiment, the lipolysis activity of the compounds was evaluated by measuring the effect of the compounds prepared in the present 10 invention on the glycerol content of the supernatant of mature adipocytes.
Experimental materials: 3T3-L1 preadipocytes; calf serum, fetal bovine serum, high glucose H-DMEM culture medium, 3-isobutyl-1-methylxanthine (IBMX), dexamethasone, insulin, Forskolin, glycerol determination kit, BCA protein concentration determination kit.
1. 3T3-L1 preadipocytes were inoculated on culture plates and cultured in high-glucose DMEM containing 10% calf serum in a 37° C., 5% CO2 incubator;
2. After the cells were fully grown, contact inhibition was performed for two days;
3. […]
6. The cell supernatant was collected to measure the glycerol content, the intracellular protein concentration was measured by BCA method for calibration, and finally Graphpad Prism was used to analyze the results.

FABP5 = FABP5 (Homo sapiens, UniProt Q01469); assay: FABP5 inhibition rate, ANS substrate competition method (illustrated by the FABP4 system); format: binding; conditions: compound 25 μM
FABP5, sequence (Q01469 whole entry): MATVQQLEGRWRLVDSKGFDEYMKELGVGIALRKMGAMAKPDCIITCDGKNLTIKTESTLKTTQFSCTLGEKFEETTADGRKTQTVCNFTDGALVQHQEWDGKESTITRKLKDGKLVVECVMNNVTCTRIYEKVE

[2] = system: MCP-1 secretion in THP-1 cells; assay: MCP-1 secretion in LPS-stimulated THP-1 monocyte-derived macrophages (ELISA); format: cell-based; conditions: FIG. 2; for secretion of inflammatory factor MCP-1 in THP-1 mononuclear macrophages: 25 μM, 10 μM and 5 μM, 18 h incubation, 100 ng/ml LPS 6 h; for MCP-1 reducing activity compared with BMS309403 and RO6806051: THP-1 macrophages, LPS
From the text: as §6, with “FIG. 2A to FIG. 2C,” for “FIG. 3,”, “cell protein: in FIG. 2D, the vertical axis represents the relative concentration of MCP-1 (ng/mg cellular protein % LPS).” for “cell protein.”, “Control” for “Control (Con)”
as §7, §8

Row | inhibition at 25 µM (Human FABP4) [%] | inhibition at 25 µM (FABP3) [%] | inhibition at 25 µM (FABP5) [%] | Structure (SMILES) | effect on prostate cancer cell proliferation, metastasis and apoptosis (prostate cancer cells) | IL-6 secretion, tendency (no concentration stated) [1] | glycerol content of the supernatant under FSK (forskolin) stimulation (3T3-L1 cells) | secretion of inflammatory factor MCP-1 in THP-1 mononuclear macrophages [2] | MCP-1 reducing activity compared with BMS309403 and RO6806051 [2]
1 | – | – | – | CCc1c(-c2ccccc2)c(-c2ccccc2)nn1-c1ccccc1-c1cccc(OCC(=O)O)c1 [BMS309403] | inhibit cell proliferation and metastasis and promote cell apoptosis | – | – | – | –
2 | 93 | 48 | 73 | O=C(O)c1c(-c2ccccc2)c2cc(Cl)ccc2c(=O)n1CC1CCCCC1 [Compound Y2, 6-Chloro-2-(cyclohexylmethyl)-1-oxo-4-phenyl-1,2-dihydroisoquinoline-3-carboxylic Acid] | – | tendency to reduce IL-6 secretion but with no statistical difference | significantly reduce the glycerol content | could reduce the secretion of inflammatory factor MCP-1 | better than those of the positive control FABP4 inhibitor BMS309403 and the lead compound RO6806051
3 | 93 | 36 | 68 | O=C(O)c1c(-c2ccccc2)c2cc(Cl)ccc2c(=O)n1C1CCCC1 [Compound Y3, 6-Chloro-2-cyclopentyl-1-oxo-4-phenyl-1,2-dihydroisoquinoline-3-carboxylic Acid] | – | tendency to reduce IL-6 secretion but with no statistical difference | significantly reduce the glycerol content | could reduce the secretion of inflammatory factor MCP-1 | better than those of the positive control FABP4 inhibitor BMS309403 and the lead compound RO6806051
